Patent US11352354B2, “Substituted penta-fused hexa-heterocyclic compounds, preparation method therefor, drug combination and use thereof” (Xiamen University, priority 2017, dated 2022)
Marks after values point to notes of the source that are not given here.

Experiments:
[1] = system: MDA-MB-231 cells; experiment: Vacuolation of MDA-MB-231 cells caused by inhibition of compounds on PIKfyve (microscopy); format: cell-based; conditions: MDA-MB-231 cells
From the text: I. Determination of Vacuolation of MDA-MB-231 Cells Caused by Inhibition of Compounds on PIKfyve
When the activity of pikfyve kinase is inhibited, vacuoles will be produced in cytoplasm. By observing the number of vacuoles under a microscope, the ability of compounds to inhibit the activity of pikfyve kinase can be known.
1. Cell plating: cells in logarithmic growth phase were made into a single cell suspension, counted with a cell counter and diluted to a cell concentration of about 2×10^5/mL. Then, the cells were inoculated into a 12-well plate, and cultured in a 37° C., 5% CO2 incubator.
3. Vacuolation test: after 24 and 48 hours of culture, photos were taken under an […] to observe the degree of vacuolation.
(In the table, “+” represents the degree of vacuolation; more “+” indicates more obvious vacuolation; “−” represents no vacuolation)

[2] = system: JeKo-1 cells; experiment: Tumor cell growth inhibition by MTS method, JeKo-1; format: cell-based; conditions: 5 days of culture; for inhibition at 10 µM: read-out: cell growth inhibition rate of compounds at 10 μM
Description: III. Determination of IC50 Value of Compound for Inhibiting Tumor Cell Growth by MTS Method
1. Cell plating: cells in logarithmic growth phase were counted and inoculated in a 96-well plate (20000 cells per well).
2. Administrating agent to cell: 10 mM compound mother solution in DMSO was subjected to 3 fold-gradient dilution, to set 8 concentrations, which were then added to various wells, with three replicates for each concentration, and three blank wells (only culture medium) and three negative controls (containing 0.1% DMSO) on each plate.
3. […] The OD value at 490 nm was measured with microplate reader OD490. The cell growth inhibition rate was calculated by the following formula: Cell growth inhibition rate %=1−(ODexperimental group−ODblank group)/(ODnegative group−ODblank group)×100%
The semi-inhibitory concentration IC50 of the compound acting on cell growth was calculated using GradPad Prism 5 software according to the measured cell growth inhibition rate.
In the following table it lists the IC50 value or the inhibition rates of some compounds at 10 μM against JeKo-1 cells

[3] = Homo sapiens, JeKo-1, 120 h, 10 μM

SMILES	degree of vacuolation, 1 μM, 24 h [1]	degree of vacuolation, 1 μM, 48 h [1]	degree of vacuolation, 10 μM, 24 h [1]	degree of vacuolation, 10 μM, 48 h [1]	IC50 ([2]; Homo sapiens, JeKo-1, 120 h)	inhibition at 10 µM [2, 3]	IC50 [2]	cell growth inhibition rate of compounds at 10 μM ([2]; 10 μM)
Cc1ccc(NC(=O)c2cccc(C(F)(F)F)c2)cc1Nc1nc(-c2cccnc2)nc2c1cnn2C [III-b-10]	−	+	−	+	1880 nM			
Cc1ccc(NC(=O)c2cccc(C(F)(F)F)c2)cc1Nc1nc(-c2cccnc2)cn2c(C)cnc12 [VI-b-7]	−	−	+	+		16.5%		
Cc1ccc(C(=O)Nc2cccc(C(F)(F)F)c2)cc1Nc1nc(-c2ccncc2)nc2[nH]cnc12 [IV-a-2]	+	++	+	++		19%		
Cn1ncc2c(NCc3cccnc3)nc(-c3cccc(NC(=O)Nc4cccc(C(F)(F)F)c4)c3)nc21 [III-b-14]	+	+	+	+	6780 nM			
Cc1ccc(NC(=O)c2cccc(C(F)(F)F)c2)cc1Nc1cc(-c2ccncc2)c2cc[nH]c2n1 [I-c-11]	++	++	++	++	6130 nM			
O=C(Nc1cccc(C(F)(F)F)c1)c1cccc(Nc2cc(-c3ccncc3)nc3sccc23)c1 [VIII-a-6]	+	+	+	+	6320 nM			
Cc1ccc(C(=O)Nc2cccc(C(F)(F)F)c2)cc1Nc1nc(-c2cccnc2)nc2c1ncn2C [IV-b-2]	+	+	+	+	7120 nM			
Cc1ccc(NC(=O)c2cccc(C(F)(F)F)c2)cc1Nc1nc(-c2cccnc2)nc2[nH]ccc12 [II-a-1]		+		+		17.3%		
Cc1ccc(NC(=O)c2cccc(C(F)(F)F)c2)cc1Nc1cc(-c2cccnc2)c2cc[nH]c2n1 [I-c-12]	+++	+++	+++	+++	1100 nM			
Cc1ccc(C(=O)Nc2cccc(C(F)(F)F)c2)cc1Nc1cc(-c2cccnc2)nc2[nH]ccc12 [I-a-20]	+++	+++	++++	++++	2540 nM			
Cc1ccc(C(=O)Nc2cccc(C(F)(F)F)c2)cc1Nc1nc(-c2cccnc2)nc2c1ccn2C [II-b-2]	+	+	+	+	2850 nM			
Cc1ccnc(Nc2nc(-c3cccc(NC(=O)c4cccc(C(F)(F)F)c4)c3)nc3ccsc23)c1 [VII-a-18]	+	+	+	+	2560 nM			
Cc1ccc(NC(=O)c2cccc(C(F)(F)F)c2)cc1Nc1cc(-c2cccnc2)nc2c1ccn2C [I-b-1]	++	++	+++	+++	2770 nM			
O=C(Nc1cccc(Nc2cc(-c3ccncc3)nc3sccc23)c1)c1cccc(C(F)(F)F)c1 [VIII-a-2]	++	++	++	++	3260 nM			
Cc1ccc(Nc2nc(-c3cccc(NC(=O)c4cccc(C(F)(F)F)c4)c3)nc3ccsc23)cn1 [VII-a-15]	+	+	+	+	2670 nM			
Cc1ccnc(Nc2nc(-c3cccc(NC(=O)c4ccc(N)nc4)c3)nc3ccsc23)c1 [VII-a-19]	−	−	−	−	1520 nM			
Cc1ccc(C(=O)Nc2cccc(C(F)(F)F)c2)cc1Nc1cc(-c2cccnc2)nc2c1ccn2C [I-b-4]	−	−					1330 nM	
Cc1ccc(C(=O)Nc2cccc(C(F)(F)F)c2)cc1Nc1nc(-c2cccnc2)nc2c1cnn2C [III-b-1]	+	++	+	++	939 nM			
Cc1ccc(C(=O)Nc2cccc(C(F)(F)F)c2)cc1Nc1cc(-c2cccnc2)nc2c1ccn2C [I-b-3]	+	+	++	++			2680 nM	
Cc1ccc(C(=O)Nc2cccc(C(F)(F)F)c2)cc1Nc1nc(-c2ccncc2)nc2cc[nH]c12 [V-a-6]	++	++	++	++	987 nM			
O=C(Nc1cccc(C(F)(F)F)c1)c1cccc(Nc2cc(-c3cccnc3)nc3sccc23)c1 [VIII-a-5]	−	+	+	+	5140 nM			
Cc1ccc(C(=O)Nc2cccc(C(F)(F)F)c2)cc1Nc1nc(-c2cccc(Cl)c2)nc2c1cnn2C [III-b-3]	−		−		4860 nM			
O=C(Nc1cccc(Nc2cc(-c3cccnc3)nc3sccc23)c1)c1cccc(C(F)(F)F)c1 [VIII-a-1]	++	++	++	++	2710 nM			
Cc1ccc(Nc2nc(-c3cccc(NC(=O)c4ccc(N)nc4)c3)nc3ccsc23)cn1 [VII-a-16]	+	+	+	+	824 nM			
Cc1ccc(C(=O)Nc2cccc(C(F)(F)F)c2)cc1Nc1nc(-c2cccnc2)cn2ccnc12 [VI-a-6]	−		−					11.3%^a
Cc1ccc(C(=O)Nc2cccc(C(F)(F)F)c2)cc1Nc1nc(-c2cccnc2)nc2cc[nH]c12 [V-a-5]	+++	+++	++	++	3080 nM			
